# Reference: paper PMC11233548 (Communications Biology, 2024)
# Entries after “also recorded” stand apart in the source; their conditions may differ. Read-outs that look alike come from different tables or passages of the source. Starred links: 1 amine or outer side, 2 acyl side, 3 side chain; linkers in the order of their positions; H or OH if unused. Primed or numbered codes have the meaning given here. No end group written: not given here. *: point of attachment. PEG5′ = linker from Fmoc-PEG5-OH (18-amino-4,7,10,13-tetraoxaoctadecanoic acid), O=C(CCOCCOCCOCCOCCCCCN[*:1])[*:2]; fluorescein = fluorescein label on the N-terminal amino group, attached via an aminohexanoic acid linker; FITC = O=C1OC2(c3ccc(O)cc3Oc3cc(O)ccc32)c2ccc(NC(=S)*)cc21; Biotin = O=C1N[C@H]2[C@H](CS[C@H]2CCCCC(=O)*)N1; Ahx = NCCCCCC(=O)O
# B1: L5UR peptide, untagged, expressed in cells (peptide)
# chain: LLRPTAASQSRALGPGAPGGSSRSSLRSRWGRFLLQRGSWTGPRCWPRGFQS
# B2: L5UR peptide, non-labeled (peptide, UniProt P15814 38-89, looked up)
# peptide: B1 chain
# notes: 52-mer L5UR: residues 38-89 of the unique region of the λ5-chain (λ5-UR) of the pre-B-cell receptor; also called full-length peptide of L5UR; source: synthetic peptide; bought: Pepmic Co., China
# B3: FITC-tagged full-length L5UR (peptide, UniProt P15814 38-89, looked up)
# peptide: {FITC-Ahx}-LLRPTAASQSRALGPGAPGGSSRSSLRSRWGRFLLQRGSWTGPRCWPRGFQS
# notes: 52-mer L5UR: residues 38-89 of the unique region of the λ5-chain (λ5-UR) of the pre-B-cell receptor; also called F-L5UR; source: synthetic peptide; bought: Pepmic Co., China
# Columns and labels:
# [1] = system: Gal1; assay: Pull-down with biotinylated L5UR, Gal1; assay type: binding; details: biotinylated L5UR 4 µM, proteins 2 µM; n = 3
# Method: (§1) Biotinylated L5UR (bio-L5UR) peptide was synthesized as described above with a PEG5-linker to link the biotin to the L5UR peptide. GST, GST-B-Raf-RBD (155–227), and His-Gal1 were prepared as described above. Each protein in the assay was used at 2 µM concentration, and the peptide was at 4 µM in a reaction of 150 µL. First, peptide and Gal1 were pre-incubated for 30 min at 37 °C, then GST-B-RBD or GST alone was added, and the reaction continued for another hour. Control reaction mixes contained DMSO-vehicle instead of the peptide. At the end of the reaction time, 10 µL of each sample was withdrawn for SDS-PAGE analysis as inputs. For pull-downs, 5 µL of the beads were taken per sample. To prepare the beads, an appropriate volume of the slurry was pipetted into 15 mL falcon tubes and centrifuged at 830×g for 1 min to remove the ethanol-containing supernatant. The falcon tube was topped up to 15 mL with distilled water and centrifuged for 1 min to remove water. This washing step was repeated three times. Finally, the beads were resuspended in distilled water so that the final bead volume was 4× diluted i.e., 20 µL were pipetted to each tube. […] The analysis was done by resolving the samples (8 µL of the input samples and 10 µL of the eluted material) on 4–20% gradient SDS-PAGE gels and analyzed by Western blotting. […]
# [2] = molecular target: GST-B-RBD (Homo sapiens, UniProt P15056); assay: Pull-down with biotinylated L5UR, GST-B-RBD; assay type: binding; details: biotinylated L5UR 4 µM, proteins 2 µM; n = 3
# Sequence of GST-B-RBD (P15056 155-227): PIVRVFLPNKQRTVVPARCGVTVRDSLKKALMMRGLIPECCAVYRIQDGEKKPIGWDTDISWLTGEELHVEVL
# Method: as §1
# [3] = molecular target: Gal1 (Homo sapiens) (UniProt P09382); details: cited from earlier work
# Target sequence in this assay (P09382 2-135): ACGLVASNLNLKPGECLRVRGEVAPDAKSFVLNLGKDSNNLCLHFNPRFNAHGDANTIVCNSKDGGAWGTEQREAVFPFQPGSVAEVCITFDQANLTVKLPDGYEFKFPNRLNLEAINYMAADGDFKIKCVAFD
# [4] = system: His-tagged Gal1; assay: Competitive fluorescence polarization, displacement of F-L5UR from His-tagged Gal1; assay type: binding; details: F-L5UR (5 nM), Gal1 (5 µM); n = 2
# [5] = system: Gal1/C-RBD; assay: FLIM-FRET Gal1/C-RBD interaction in HEK cells; assay type: cell-based, rat Gal1; C-RBD of human C-Raf; HEK cells; details: mGFP-Gal1 / mRFP-C-RBD 1:3, expression (24 h) of plasmid or compound, n = 3
# [6] = molecular target: Gal1 (Homo sapiens) (UniProt P09382); details: cited from earlier work; remark: listed apart in the source
# [7] = system: HEK cells (pERK, pAkt); assay type: cell-based, human; details: 2 h, EGF 200 ng/mL 10 min; n = 3–8
# [8] = system: Hs 578 T cells (pERK, pAkt); assay: Immunoblot of EGF-induced pERK and pAkt in Hs 578 T; assay type: cell-based, human; details: intermediate concentrations, 2 h
# [9] = system: H-RasG12V nanoclustering; assay: H-RasG12V nanoclustering-BRET in HEK cells; assay type: cell-based, human; details: n = 3
# [10] = system: MIA PaCa-2 cells (pERK, pAkt); assay: Immunoblot of EGF-induced pERK and pAkt in MIA PaCa-2; assay type: cell-based, human; details: intermediate concentrations, 2 h
# [11] = molecular target: Gal1/B-RBD (Homo sapiens, UniProt P15056); assay: Gal1/B-RBD BRET in HEK cells; assay type: cell-based; details: peptide added to HEK cells, 0.1 µM to 100 µM, 2 h incubation; donor:acceptor 1:10; n ≥ 2
# Sequence of Gal1/B-RBD (P15056 155-227): as the sequence (P15056 155-227) above
# [12] = system: H-RasG12V nanoclustering; assay: Electron microscopy-based analysis of H-RasG12V nanoclustering in BHK cells; assay type: cell-based, baby hamster kidney (BHK) cells; details: membrane sheets of Gal1-expressing BHK cells; n = 15
# Text: To quantify the nanoclustering of a component integral to the plasma membrane (PM), the apical PM sheets of baby hamster kidney (BHK) cells expressing a GFP-tagged H-Ras construct were fixed with 4% (w/v) PFA and 0.1% (w/v) glutaraldehyde. GFP anchored to the PM sheets was probed with 4.5 nm gold particles pre-coupled to anti-GFP antibody. Following embedment with methyl cellulose, the PM sheets were imaged using transmission electron microscopy (JEOL JEM-1400). Using the coordinates of every gold particle, Ripley’s K-function calculated the extent of nanoclustering of gold particles within a selected 1 μm^2 PM area: K(r)=An^−2∑i≠jwij1(∥xi−xj∥≤r) Lr−r=Kr/π−r where n gold particles populate in an intact area of A; r is the length between 1 and 240 nm; || ^. || indicates Euclidean distance where 1(^.) = 1 if ||xi − xj|| ≤ r and 1(^.) = 0 if ||xi − xj|| > r; K(r) specifies the univariate K-function. wij^−1 is a parameter used for an unbiased edge correction and characterizes the proportion of the circumference of a circle that has the center at xi and radius ||xi-xj||. Monte Carlo simulations estimate the 99% confidence interval (99% C.I.), which is then used to linearly transform K(r) into L(r) − r. On a nanoclustering curve of L(r) − r vs. r, the peak L(r) − r value is used as summary statistics for nanoclustering and is termed as Lmax. […]
# [13] = system: H-RasG12V nanoclustering; assay: FLIM-FRET H-RasG12V nanoclustering in HEK cells; assay type: cell-based, HEK cells; rat Gal1; details: donor:acceptor 1:3, expression (24 h), n = 3
# [14] = molecular target: Gal1; details: residues 22–45 of L5UR, opposite side of the carbohydrate binding site of Gal1; ref 38 (Elantak et al.); cited from earlier work
# Text: (Supplementary Fig. 2a). […] We hypothesized that the 52-mer L5UR peptide, which was derived from a Gal1 interaction partner, could act as a Raf-RBD/Gal1-interface inhibitor. Its residues 22–45 were previously ... || page 9: Question 3-2. The authors measure the affinity of L5UR to BRAF GST-RBD using fluorescence polarization. The affinity is an increase is 40-fold over the affinity of this peptide to Gal1 – this is a significant enhancement, do the authors have an explanation for this? […] In the pull-downs containing both Gal1 and GST-RBD both proteins are pulled down to equal levels, again this is surprising as one would exp ...
# [15] = system: GST; assay: Direct fluorescence polarization binding of F-L5UR to GST (control); details: 10 nM F-L5UR, n = 3
# Method: For the direct binding assay, the GST-B-RBD, or GST, was 2-fold diluted in an assay buffer composed of 50 mM Tris HCl pH 7.4, 50 mM NaCl, 5 mM DTT, and 0.005% (v/v) Tween 20 in a black low volume, round bottom 384-well plate (Corning, #4514). Then 10 nM F-L5UR peptide was added to each well and incubated for 20 min at ~22 °C on a horizontal shaker. The fluorescence polarization measurement was performed on the Clariostar (BMG Labtech) plate reader, using a fluorescence polarization module (λexcitation 482 ± 8 nm and λemission 530 ± 20 nm). The milli fluorescence polarization, mP, was determined from the measured fluorescence intensities, calculated according to, mP=1000×Ih−Iv/Ih+Iv where Iv and Ih are the fluorescence emission intensities detected with vertical and horizontal polarization, respectively. The mP was plotted against the concentration of the GST-RBD and the KD value of the F-L5UR was calculated using a quadratic equation, y=Af+Ab−Af*Lt+KD+x−(Lt+KD+x)^2−4*Lt*x/2Lt
# [16] = molecular target: B-Raf-derived RBD (BRET construct) (UniProt P15056)
# Sequence of B-Raf-derived RBD (BRET construct) (P15056 155-227): as above
# [17] = molecular target: T1, GST-tagged B-Raf-RBD (155-227) (human, UniProt P15056 155-227); assay: fluorescence polarisation; competitive: non-labeled peptides 3-fold diluted, added to a complex of F-L5UR and RBD (methods: 5 nM and 200 nM; legend of Fig. 2e: 10 nM and 15 µM GST-B-RBD); 30 min at ~22 °C; four-parameter fit; details: both partners purified
# T1 construct: also called GST-B-RBD; GST-B-Raf-RBD; source: E. coli, purified (glutathione agarose)
# T1 sequence (P15056 155-227): as above
# [18] = molecular target: T2, C-Raf-RBD (50-134), purified (human, UniProt P04049 50-134); assay: as above; details: both partners purified
# T2 construct: also called C-RBD; source: E. coli, purified (glutathione agarose)
# [19] = molecular target: T1, GST-tagged B-Raf-RBD (155-227); details: both partners purified
# [20] = molecular target: T2, C-Raf-RBD (50-134), purified; assay: fluorescence polarisation; competitive: non-labeled peptides 3-fold diluted, added to a complex of F-L5UR and RBD (methods: 5 nM and 200 nM; legend of Fig. 2e: 10 nM and 15 µM GST-B-RBD); 30 min at ~22 °C; four-parameter fit; details: both partners purified; remark: listed apart in the source
molecule,measurement,setting,value
bio-L5UR: Biotinylated L5UR with a PEG5-linker linking biotin to the L5UR peptide ({Biotin-PEG5′}-LLRPTAASQSRALGPGAPGGSSRSSLRSRWGRFLLQRGSWTGPRCWPRGFQS-NH2),pull-down of Gal1,[1],pulled down Gal1 and the GST-B-RBD independently from each other
same,pull-down of GST-B-RBD,[2],pulled down Gal1 and the GST-B-RBD independently from each other
L5UR peptide 22-45 (from UniProt P15814),Kd,[3],310 µM
Anginex,displacement of F-L5UR from Gal1,[4],it can be displaced from purified His-tagged Gal1
same,effect on Gal1/C-RBD FRET,[5],neither Anginex nor OTX-008 disrupted the Gal1/C-RBD interaction
Gal1 (from UniProt P09382),Kd,[6],7 µM
"CC(=O)Nc1cccc(-n2c(=O)n(C3CC3)c(=O)c3c(Nc4ccc(I)cc4F)n(C)c(=O)c(C)c32)c1 [trametinib, reference compound]","pAkt levels, HEK",[7],also upregulated by trametinib
CN(C)CCNC(=O)COc1c2cccc1Cc1cccc(c1OCC(=O)NCCN(C)C)Cc1cccc(c1OCC(=O)NCCN(C)C)Cc1cccc(c1OCC(=O)NCCN(C)C)C2 [OTX-008],effect on Gal1/C-RBD FRET,[5],neither Anginex nor OTX-008 disrupted the Gal1/C-RBD interaction
"GRKKRRQRRRPQ [TAT, 12-residue cell penetrating peptide derived from an HIV-protein, reference compound]","pERK- and/or pAkt-levels, Hs 578 T",[8],apparently non-specific increase in pERK- and/or pAkt-levels
same,effect of peptide on H-RasG12V nanoclustering BRET,"[9]; peptide added to HEK cells, 0.1 µM to 100 µM, 2 h incubation, donor:acceptor 1:5, 200 ng Gal1 plasmid","Neither the TAT-peptide alone, nor the mutant TAT-mutL5URcore, or the non-TAT peptides L5URcore and mutL5URcore decreased the BRET-signal in either assay"
same,"pERK- and/or pAkt-levels, MIA PaCa-2",[10],apparently non-specific increase in pERK- and/or pAkt-levels
same,effect of peptide on Gal1/B-RBD BRET,[11],"Neither the TAT-peptide alone, nor the mutant TAT-mutL5URcore, or the non-TAT peptides L5URcore and mutL5URcore decreased the BRET-signal in either assay"
Ac-LLRPTAASQSRALGPGAPGGSSRSSLRSRWGRFLLQRGSWTGPRCWPRGFQS-NH2 (N-terminus and C-terminus assumed) [L5UR],effect of construct expression on H-RasG12V nanoclustering-BRET without co-expression of Gal1,"[9]; expression (48 h), HEK cells comparatively devoid of Gal1, donor:acceptor 1:5",very similar effects even without co-expression of Gal1
same,reduction of H-RasG12V nanoclustering-BRET,"[9]; expression (48 h), co-transfection of 200 ng Gal1 plasmid, donor:acceptor 1:5, Fig. 3c",~ 33%
same,disruption of H-RasG12V nanoclustering (Lmax),[12],disruption of H-RasG12V nanoclustering by L5UR- and L5UR-SNAP construct expression
same,effect on H-RasG12V nanoclustering-FRET,[13]; Gal1-augmented,decreased the Gal1-augmented H-RasG12V nanoclustering-FRET
same,"effect on H-RasG12V nanoclustering-FRET, N-Gal1",[13]; dimerization-deficient N-Gal1,had no additional effect
same,effect on Gal1/C-RBD FRET,[5],decreased the FRET between mGFP-Gal1 and mRFP-C-RBD
same,Kd,[14],310 µM
F-L5UR: fluorescein attached to N-terminus amino group of L5UR via aminohexanoic acid linker ({fluorescein-Ahx}-LLRPTAASQSRALGPGAPGGSSRSSLRSRWGRFLLQRGSWTGPRCWPRGFQS),binding to GST alone,[15],no binding to GST alone; also recorded: negligible binding
B1,reduction of Gal1-enhanced H-RasG12V nanoclustering-BRET in HEK cells on expression of the construct (it blocks Gal1/B-RBD),[16],33%
B2,IC50,[17],2 ± 1 µM
same,IC50,[18],4 ± 1 µM
B3,Kd,[19],7.3 ± 0.7 µM
same,binding result,[20],binds
